pKd: −log10 of the molar value. Like-named read-outs stand apart in the source and are kept apart here. Residues, ends and D or L forms follow the SMILES beside them.
Target: T1, IKKβ(1-669) EE homodimer (Homo sapiens, UniProt O14920, S177E/S181E)
T1 construct: a nearly full-length (residues 1-669) and constitutively active (S177E/S181E) mutant construct of human IKKβ; 6×His (followed by TEV site) (N, cleaved yes); made in house; host or cells: Sf21 insect cells (baculovirus)
T1 sequence (O14920 1-669 S177E/S181E): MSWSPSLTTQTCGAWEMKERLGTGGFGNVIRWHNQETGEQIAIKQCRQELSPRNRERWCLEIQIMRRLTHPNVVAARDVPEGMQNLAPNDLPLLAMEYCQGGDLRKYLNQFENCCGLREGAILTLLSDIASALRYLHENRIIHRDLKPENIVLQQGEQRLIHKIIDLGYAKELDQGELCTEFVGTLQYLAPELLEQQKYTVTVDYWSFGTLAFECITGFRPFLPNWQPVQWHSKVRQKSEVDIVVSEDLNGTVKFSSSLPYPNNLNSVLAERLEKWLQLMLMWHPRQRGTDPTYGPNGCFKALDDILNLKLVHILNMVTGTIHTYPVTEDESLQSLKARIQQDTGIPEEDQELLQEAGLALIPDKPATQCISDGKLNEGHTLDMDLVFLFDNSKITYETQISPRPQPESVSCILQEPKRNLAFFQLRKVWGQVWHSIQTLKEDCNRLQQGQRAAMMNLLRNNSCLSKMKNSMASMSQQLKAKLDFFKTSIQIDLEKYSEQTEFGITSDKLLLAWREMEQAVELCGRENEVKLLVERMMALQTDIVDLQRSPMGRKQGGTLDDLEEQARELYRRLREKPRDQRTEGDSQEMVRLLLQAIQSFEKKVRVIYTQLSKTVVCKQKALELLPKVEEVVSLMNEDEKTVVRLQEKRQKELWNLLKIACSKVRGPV
Assay: Isothermal titration calorimetry (ITC) of peptide binding to IKKβ homodimer
Details: for N (binding stoichiometry of IKKβ: pep) / TΔS / ΔG / ΔH: 25° C.; for N (binding stoichiometry of IKKβ: pep): 1:1 binding model
Procedure: All experiments were performed in ITC buffer (20 mM HEPES pH 8.0, 150 mM NaCl, 1 mM TCEP) unless otherwise stated. Purified IKKα(10-667) EE and IKKβ(1-669) EE protein samples were dialyzed overnight against ITC buffer at 4° C. Just before the ITC experiments, IKKα or IKKβ samples were concentrated, incubated at room temperature for 30 minutes and centrifuged at 11000 g to remove eventual precipitate. The final concentrations of IKKα and IKKβ in the sample cell varied between 22 and 50 μM depending on the measurement. HPLC purified synthetic peptides (IκBα pep) comprising residues 297-317 of IκBα were further desalted using a Nap5 (GE Healthcare, #17-0853-01) column equilibrated in milliQ water, lyophilized and then resuspended in ITC buffer. The concentration of peptides in the syringe varied between 220 and 975 μM depending on the measurement.
All ITC measurements were performed using a PEAQ-ITC MALVERN instrument. The titration parameters were set as following: temperature 25° C., reference power 10 μcal/s, feedback=high, stirring speed 750 RPM, initial delay 60 s, first injection 0.4 μl in 0.8 s and the remaining 19 injections were 2 μL in 4 s with 120 s of spacing. The data were fitted to a 1:1 binding model. All data were processed using NITPIC software and global fitting of two datasets was carried out using SEDPHAD.
To evaluate binding affinities, isothermal titration calorimetry (ITC) experiments were performed using a synthetic peptide that comprises the YDDφXφ motif plus the N-terminal acidic patch (residues 297-317, named IκBα pep hereafter) and purified IKKβ(1-669) EE homodimer or an equivalent construct of the IKKα homodimer (i.e. IKKα(10-667) S176E/S180E, named IKKα(10-667) EE hereafter). […] ITC analyses on the IKKα/β heterodimer were prevented by strong aggregation propensity at the concentrations required for these experiments.
All ITC experiments were performed at 25° C. The data were fitted to a 1:1 binding model. N refers to the binding stoichiometry of IKKα/β: pep, meaning that approximately half of total IKKα/β concentration binds pep ligand in agreement with the dimer form of IKKα/β being binding competent. The values for the IKKα interaction with IRF7 pep should be regarded as estimates due to low affinity and weakly exothermic binding, and therefore high experimental error and fitting uncertainty. All data were processed using NITPIC software and global fitting of two datasets was carried out using SEDPHAD.

CC(C)C[C@H](NC(=O)[C@@H](NC(=O)[C@H](CC(C)C)NC(=O)[C@H](CCCNC(=N)N)NC(=O)[C@H](CCC(N)=O)NC(=O)CNC(=O)CNC(=O)[C@H](Cc1ccccc1)NC(=O)[C@@H](NC(=O)[C@H](CC(C)C)NC(=O)[C@H](CC(=O)O)NC(=O)[C@H](CC(=O)O)NC(=O)[C@H](Cc1ccc(O)cc1)NC(=O)[C@@H]1CCCN1C(=O)[C@H](CC(C)C)NC(=O)[C@H](CCC(=O)O)NC(=O)[C@H](CC(=O)O)NC(=O)[C@H](CCC(=O)O)NC(=O)[C@@H](NC(=O)[C@H](Cc1ccccc1)NC(=O)[C@@H](N)CCC(=O)O)[C@@H](C)O)C(C)C)[C@@H](C)O)C(=O)O [IkBα pep C308L] (H-EFTEDELPYDDLVFGGQRLTL-OH; N-terminus and C-terminus assumed)
enhancement of affinity to IKKβ relative to IκBα pep wt (ITC): 15 fold
N (binding stoichiometry of IKKβ: pep) (ITC): 0.63
TΔS (ITC, IKKβ): -4.59 kcal/mol
ΔG (ITC, IKKβ): -7.61 kcal/mol
ΔH (ITC, IKKβ): -12.2 kcal/mol
pKd (ITC, IKKβ, read-out: KD): 5.59

CC(C)C[C@H](NC(=O)[C@@H](NC(=O)[C@H](CC(C)C)NC(=O)[C@H](CCCNC(=N)N)NC(=O)[C@H](CCC(N)=O)NC(=O)CNC(=O)CNC(=O)[C@H](Cc1ccccc1)NC(=O)[C@@H](NC(=O)[C@H](CS)NC(=O)[C@H](CC(=O)O)NC(=O)[C@H](CC(=O)O)NC(=O)[C@H](Cc1ccc(O)cc1)NC(=O)[C@@H]1CCCN1C(=O)[C@H](CC(C)C)NC(=O)[C@H](CCC(=O)O)NC(=O)[C@H](CC(=O)O)NC(=O)[C@H](CCC(=O)O)NC(=O)[C@@H](NC(=O)[C@H](Cc1ccccc1)NC(=O)[C@@H](N)CCC(=O)O)[C@@H](C)O)C(C)C)[C@@H](C)O)C(=O)O [IκBα pep] (H-EFTEDELPYDDCVFGGQRLTL-OH; N-terminus and C-terminus assumed)
pKd: 4.40
N (binding stoichiometry of IKKβ: pep) (ITC): 0.58
TΔS (ITC, IKKβ): -9.78 kcal/mol
ΔG (ITC, IKKβ): -6.00 kcal/mol
ΔH (ITC, IKKβ): -15.8 kcal/mol

— patent publication US20260265321A1, “PEPTIDE AND POLYPEPTIDE INHIBITING THE NF-KB SIGNALING PATHWAY” (Centre National de la Recherche Scientifique, priority 2023, published 2026)
